Measured values taken from US20210380623A1, “PRODRUG GALACTOSIDE INHIBITOR OF GALECTINS” (GALECTO BIOTECH AB, priority 2018, published 2021).
pKd: −log10 of the molar value. Converted amounts (≈) assume the structure as drawn.

Experiments:
[1] = system: galectins; settings: cited from earlier work
[2] = aqueous solubility; assay type: physicochemical; settings: water
[3] = molecular target: Galectin-3 (Homo sapiens, UniProt P17931); assay: fluorescence anisotropy assay, inhibition of galectin / fluorescein tagged saccharide probe interaction; assay type: binding; settings: for pKd: fluorescence anisotropy; for affinity towards the corresponding galectin (in words): pro-drug itself
Galectin-3, sequence (P17931 whole entry): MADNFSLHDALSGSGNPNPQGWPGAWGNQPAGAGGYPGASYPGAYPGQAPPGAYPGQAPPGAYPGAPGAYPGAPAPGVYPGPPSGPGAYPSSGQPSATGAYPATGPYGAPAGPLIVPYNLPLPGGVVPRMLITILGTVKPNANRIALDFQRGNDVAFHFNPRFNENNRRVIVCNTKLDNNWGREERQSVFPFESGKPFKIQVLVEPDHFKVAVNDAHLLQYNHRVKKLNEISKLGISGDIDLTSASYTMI

[4] = mouse PK experiments, plasma exposure of Ref 1 after p.o. administration; assay type: in vivo; settings: for exposure in mice PK after per oral administration: mouse, p.o., 20, 40, 80 and 160 mg/kg, plasma exposure of Ref 1

Structure (SMILES) | solubility [2] | pKd [3] | further results
O=C[C@H](O)[C@@H](O)[C@@H](O)[C@H](O)CO [D-galactose] | – | – | affinity, times lower than lactose ([1]; relative to lactose): 50-100 times
O=P(O)(O)OC[C@H]1O[C@H](Sc2cncc(Br)c2)[C@H](O)[C@@H](n2cc(-c3cc(F)c(F)c(F)c3)nn2)[C@H]1O [Example 1, 5-Bromopyridin-3-yl 3-deoxy-3-[4-(3,4,5-trifluorophenyl)-1H-1,2,3-triazol-1-yl]-6-O-phospho-1-thio-α-D-galactopyranoside] | 8500 µg/mL (≈ 13.9 mM) | 4.46 | affinity towards the corresponding galectin (in words) [3]: low
O=P(O)(O)O[C@@H]1[C@@H](n2cc(-c3cc(F)c(F)c(F)c3)nn2)[C@@H](O)[C@@H](CO)O[C@@H]1Sc1cncc(Br)c1 [Example 2, 5-Bromopyridin-3-yl 3-deoxy-3-[4-(3,4,5-trifluorophenyl)-1H-1,2,3-triazol-1-yl]-2-O-phospho-1-thio-α-D-galactopyranoside] | 9800 µg/mL (≈ 16 mM) | 8.22 | –
O=P(O)(O)O[C@@H]1[C@@H](n2cc(-c3cc(F)c(F)c(F)c3)nn2)[C@@H](O)[C@@H](CO)O[C@@H]1Sc1ccc(Cl)c(Cl)c1 [Example 3, 3,4-Dichlorophenyl 3-deoxy-3-[4-(3,4,5-trifluorophenyl)-1H-1,2,3-triazol-1-yl]-2-O-phospho-1-thio-α-D-galactopyranoside] | – | 8.15 | –
O=S(=O)(O)OC1C(n2cc(-c3cc(F)c(F)c(F)c3)nn2)[C@@H](O)C(CO)O[C@@H]1Sc1ccc(Cl)c(Cl)c1 (stereo partly drawn) [Example 4, 3,4-Dichlorphenyl 3-Deoxy-3-[4-(3,4,5-trifluorophenyl)-1H-1,2,3-triazol-1-yl]-2-O-sulfo-1-thio-α-D-galactopyranoside] | – | 7.85 | –
O=S(=O)(O)O[C@@H]1[C@@H](n2cc(-c3cc(F)c(F)c(F)c3)nn2)[C@@H](O)[C@@H](CO)O[C@@H]1Sc1cncc(Br)c1 [Example 5, 5-Bromopyridin-3-yl 3-Deoxy-3-[4-(3,4,5-trifluorophenyl)-1H-1,2,3-triazol-1-yl]-2-O-sulfo-1-thio-α-D-galactopyranoside] | – | 8.40 | –
O=S(=O)(O)OC[C@H]1O[C@H](Sc2cncc(Br)c2)[C@H](O)[C@@H](n2cc(-c3cc(F)c(F)c(F)c3)nn2)[C@H]1O [Example 6, 5-Bromopyridin-3-yl 3-Deoxy-3-[4-(3,4,5-trifluorophenyl)-1H-1,2,3-triazol-1-yl]-6-O-sulfo-1-thio-α-D-galactopyranoside] | 9600 µg/mL (≈ 15.7 mM) | 4.57 | –
O=P(O)(O)OCOC[C@H]1O[C@H](Sc2cncc(Br)c2)[C@H](O)[C@@H](n2cc(-c3cc(F)c(F)c(F)c3)nn2)[C@H]1O [Example 7, 5-Bromopyridin-3-yl 3-deoxy-3-[4-(3,4,5-trifluorophenyl)-1H-1,2,3-triazol-1-yl]-6-O-[(phosphonooxy)methyl]-1-thio-α-D-galactopyranoside] | > 10000 µg/mL | 4.82 | exposure in mice PK after per oral administration [4]: dose correlated exposure; affinity towards the corresponding galectin (in words) [3]: low
O=P(O)(O)OCO[C@@H]1[C@@H](n2cc(-c3cc(F)c(F)c(F)c3)nn2)[C@@H](O)[C@@H](CO)O[C@@H]1Sc1cncc(Br)c1 [Example 8, 5-Bromopyridin-3-yl 3-deoxy-3-[4-(3,4,5-trifluorophenyl)-1H-1,2,3-triazol-1-yl]-2-O-[(phosphonooxy)methyl]-1-thio-α-D-galactopyranoside] | > 10000 µg/mL | 8.00 | exposure in mice PK after per oral administration [4]: dose correlated exposure
O=P(O)(O)OCO[C@@H]1[C@@H](n2cc(-c3cc(F)c(Cl)c(F)c3)nn2)[C@@H](O)[C@@H](CO)O[C@@H]1Sc1cncc(Br)c1 [Example 9, 5-Bromopyridin-3-yl 3-[4-(4-chloro-3,5-difluorophenyl)-1H-1,2,3-triazol-1-yl]-3-deoxy-2-O-[(phosphonooxy)methyl]-1-thio-α-D-galactopyranoside] | 800 µg/mL (≈ 1.21 mM) | 8.15 | –
OC[C@H]1O[C@H](Sc2cncc(Br)c2)[C@H](O)[C@@H](n2cc(-c3cc(F)c(F)c(F)c3)nn2)[C@H]1O [Ref 1, 5-Bromopyridin-3-yl 3-deoxy-3-[4-(3,4,5-trifluorophenyl)-1H-1,2,3-triazol-1-yl]-1-thio-α-D-galactopyranoside, reference compound] | 7 µg/mL (≈ 0.0131 mM) | – | oral availability ([4]; mouse PK, some formulations, dosed above 10 mg/kg): limited oral availability
OC[C@H]1O[C@H](Sc2ccc(Cl)c(Cl)c2)[C@H](O)[C@@H](n2cc(-c3cc(F)c(F)c(F)c3)nn2)[C@H]1O [Ref 2, 3,4-Dichlorophenyl 3-deoxy-3-[4-(3,4,5-trifluorophenyl)-1H-1,2,3-triazol-1-yl]-1-thio-α-D-galactopyranoside, reference compound] | 37 µg/mL (≈ 0.0708 mM) | – | –
OC[C@H]1O[C@H](Sc2cncc(Br)c2)[C@H](O)[C@@H](n2cc(-c3cc(F)c(Cl)c(F)c3)nn2)[C@H]1O [Ref 3, 5-Bromopyridin-3-yl 3-deoxy-3-[4-(4-chloro-3,5-difluorophenyl)-1H-1,2,3-triazol-1-yl]-1-thio-α-D-galactopyranoside, reference compound] | 7 µg/mL (≈ 0.0127 mM) | – | –
OC[C@H]1O[C@@H](O[C@H]2[C@H](O)[C@@H](O)C(O)O[C@@H]2CO)[C@H](O)[C@@H](O)[C@H]1O (stereo partly shown) [lactose] | – | – | pKd ([1]; read-out: Kd, all galectins): 3.00 to 3.30
